The values that follow come from US11325938B2, “CD73 inhibitors” (ORIC Pharmaceuticals, Inc., priority 2018, dated 2022).

This assay has as its target CD73 (Homo sapiens (Human), UniProt P21589). The assay is described as follows: Biochemical assay: inhibition of CD73 activity (AMP hydrolysis, Malachite Green readout). As to conditions: CD73 0.3208 nM, AMP 15 μM, 25 mM Tris-HCl pH 7.4, RT, absorbance 620 nm. The protocol: Example A1: Biochemical Assay
Assay Reaction Conditions
• Assay Volume: 70 μl • Reaction Volume: 50 μl • CD73: 0.3208 nM • AMP: 15 μM • Assay Buffer: 25 mM Tris-HCL, pH 7.4, 0.01% Brij-35, 0.01% BSA, 5 mM MgCl2 Assay Procedure:
Made dose titration of testing compounds in assay buffer, 10 points ½ log titrations in duplicates starting at 100 μM.
Added 25 μl of CD73 to each well for a final concentration of 320 pM.
Incubated at RT for 15 min.
Added 25 μl of AMP to each well for a final concentration of 15 μM.
Incubated at RT for 10 min.
Added 10 μl of Malachite Green Reagent A, incubate at RT for 10 min.
Added 10 of Malachite Green Reagent B, incubate at RT for 45 min.
Read the Absorbance on Envision plate reader using excitation filter: Cy5 […].
The ability of the compounds disclosed herein to inhibit CD73 activity was quantified and the respective IC50 values were determined. Table 2 provides the biochemical IC50 values of compounds disclosed herein.

One may read the IC50 as the midpoint of a concentration-inhibition curve.

Structures are written as SMILES. Where only a bound is given, the exact number is not on record here.

CD73, sequence (P21589 27-574): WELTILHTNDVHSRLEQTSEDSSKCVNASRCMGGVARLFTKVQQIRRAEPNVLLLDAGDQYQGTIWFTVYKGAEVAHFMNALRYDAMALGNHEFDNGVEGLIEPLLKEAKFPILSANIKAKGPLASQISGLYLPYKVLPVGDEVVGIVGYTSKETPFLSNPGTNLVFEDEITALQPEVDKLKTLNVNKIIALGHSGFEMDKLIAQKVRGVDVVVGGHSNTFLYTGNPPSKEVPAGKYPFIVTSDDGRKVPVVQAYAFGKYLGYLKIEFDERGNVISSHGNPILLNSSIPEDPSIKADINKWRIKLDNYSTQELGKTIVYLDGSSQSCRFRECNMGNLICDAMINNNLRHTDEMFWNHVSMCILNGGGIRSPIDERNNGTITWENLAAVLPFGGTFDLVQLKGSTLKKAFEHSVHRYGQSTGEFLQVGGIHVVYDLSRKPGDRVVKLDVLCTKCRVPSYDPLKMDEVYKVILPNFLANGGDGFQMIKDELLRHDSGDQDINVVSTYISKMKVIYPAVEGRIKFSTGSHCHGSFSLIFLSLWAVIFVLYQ

As to `COC[C@](C)(OC[C@H]1O[C@@H](n2nnc3c(NC4CCCC4)nc(Cl)nc32)[C@H](O)[C@@H]1O)P(=O)(O)O` [Example 110, ((R)-2-(((2R,3S,4R,5R)-5-(5-chloro-7-(cyclopentylamino)-3H-[1,2,3]triazolo[4,5-d]pyrimidin-3-yl)-3,4-dihydroxytetrahydrofuran-2-yl)methoxy)-1-methoxypropan-2-yl)phosphonic acid], the IC50 was ≤ 100 nM.
As for `C[C@](CO)(OC[C@H]1O[C@@H](n2ncc3c(N[C@@H]4CCc5ccc(F)cc54)nc(Cl)nc32)[C@H](O)[C@@H]1O)P(=O)(O)O` [Example 108, ((S)-2-(((2R,3S,4R,5R)-5-(6-chloro-4-(((R)-6-fluoro-2,3-dihydroxy-1H-inden-1-yl)amino)-1H-pyrazolo[3,4-d]pyrimidin-1-yl)-3,4-dihydroxytetrahydrofuran-2-yl)methoxy)-1-hydroxypropan-2-yl)phosphonic acid], the IC50 is ≤ 100 nM.
Take `COCC(C)(OC[C@H]1O[C@@H](n2nnc3c(N[C@@H]4CCc5ccccc54)nc(Cl)nc32)[C@H](O)[C@@H]1O)P(=O)(O)O` (stereo partly drawn) [Example 155, (2-(((2R,3S,4R,5R)-5-(5-chloro-7-(((R)-2,3-dihydro-1H-inden-1-yl)amino)-3H-[1,2,3]triazolo[4,5-d]pyrimidin-3-yl)-3,4-dihydroxytetrahydrofuran-2-yl)methoxy)-1-methoxypropan-2-yl)phosphonic acid]: the IC50 is ≤ 100 nM.
For `CC(O)C(OC[C@H]1O[C@@H](n2ncc3c(NC4CCCC4)nc(Cl)nc32)[C@H](O)[C@@H]1O)P(=O)(O)O` (stereo partly drawn) [Example 42, (1-(((2R,3S,4R,5R)-5-(6-chloro-4-(cyclopentylamino)-1H-pyrazolo[3,4-d]pyrimidin-1-yl)-3,4-dihydroxytetrahydrofuran-2-yl)methoxy)-2-hydroxypropyl)phosphonic acid], the IC50 is ≤ 100 nM.
The same measure for `O=P(O)(O)C(CO)(COC1CCC1)OC[C@H]1O[C@@H](n2ncc3c(NC4CCCC4)nc(Cl)nc32)[C@H](O)[C@@H]1O` (mixture of isomers) [Example 163, rac-(2-(((2R,3S,4R,5R)-5-(6-chloro-4-(cyclopentylamino)-1H-pyrazolo[3,4-d]pyrimidin-1-yl)-3,4-dihydroxytetrahydrofuran-2-yl)methoxy)-1-cyclobutoxy-3-hydroxypropan-2-yl)phosphonic acid]: ≤ 100 nM; for `O=P(O)(O)C(CO)(CC1COC1)OC[C@H]1O[C@@H](n2ncc3c(NC4CCCC4)nc(Cl)nc32)[C@H](O)[C@@H]1O` (mixture of isomers) [Example 167, rac-(2-(((2R,3S,4R,5R)-5-(6-chloro-4-(cyclopentylamino)-1H-pyrazolo[3,4-d]pyrimidin-1-yl)-3,4-dihydroxytetrahydrofuran-2-yl)methoxy)-1-hydroxy-3-(oxetan-3-yl)propan-2-yl)phosphonic acid]: ≤ 100 nM.
Take `O=P(O)(O)C(CO)(CO)OC[C@H]1O[C@@H](n2ncc3c(N[C@@H]4CCc5cc(F)ccc54)nc(Cl)nc32)[C@H](O)[C@@H]1O` (racemic) [Example 176, rac-(2-(((2R,3S,4R,5R)-5-(6-chloro-4-(((R)-5-fluoro-2,3-dihydro-1H-inden-1-yl)amino)-1H-pyrazolo[3,4-d]pyrimidin-1-yl)-3,4-dihydroxytetrahydrofuran-2-yl)methoxy)-1,3-dihydroxypropan-2-yl)phosphonic acid]: the IC50 was ≤ 100 nM.
As for `C[C@@H]1CCC[C@@H]1Nc1nc(Cl)nc2c1cnn2[C@@H]1O[C@H](COC(CO)(CO)P(=O)(O)O)[C@@H](O)[C@H]1O` (racemic) [Example 228, rac-(2-(((2R,3S,4R,5R)-5-(6-chloro-4-(((1S,2R)-2-methylcyclopentyl)amino)-1H-pyrazolo[3,4-d]pyrimidin-1-yl)-3,4-dihydroxytetrahydrofuran-2-yl)methoxy)-1,3-dihydroxypropan-2-yl)phosphonic acid], the IC50 is ≤ 100 nM.
As for `CC(CO)(OC[C@H]1O[C@@H](n2ncc3c(NC4CCCC4)nc(C#CCO)nc32)[C@H](O)[C@@H]1O)P(=O)(O)O` (stereo partly drawn) [Example 89, (2-(((2R,3S,4R,5R)-5-(4-(Cyclopentylamino)-6-(3-hydroxyprop-1-yn-1-yl)-1H-pyrazolo[3,4-d]pyrimidin-1-yl)-3,4-dihydroxytetrahydrofuran-2-yl)methoxy)-1-hydroxypropan-2-yl)phosphonic acid], the half-maximal inhibitory concentration (IC50) is ≤ 100 nM.
Turning to `C[C@@H](Nc1nc(Cl)nc2c1cnn2[C@@H]1O[C@H](COC(CO)(CO)P(=O)(O)O)[C@@H](O)[C@H]1O)c1ccc(F)cc1` (racemic) [Example 222, rac-(2-(((2R,3S,4R,5R)-5-(6-chloro-4-(((R)-1-(4-fluorophenyl)ethyl)amino)-1H-pyrazolo[3,4-d]pyrimidin-1-yl)-3,4-dihydroxytetrahydrofuran-2-yl)methoxy)-1,3-dihydroxypropan-2-yl)phosphonic acid], the IC50 was ≤ 100 nM.
Consider `C[C@@](CO)(OC[C@H]1O[C@@H](n2ncc3c(N[C@@H]4CCc5cc(F)ccc54)nc(Cl)nc32)[C@H](O)[C@@H]1O)P(=O)(O)O` [Example 122, ((R)-2-(((2R,3S,4R,5R)-5-(6-chloro-4-(((R)-5-fluoro-2,3-dihydro-1H-inden-1-yl)amino)-1H-pyrazolo[3,4-d]pyrimidin-1-yl)-3,4-dihydroxytetrahydrofuran-2-yl)methoxy)-1-hydroxypropan-2-yl)phosphonic acid], for which the IC50 is ≤ 100 nM.
On to `CC(C)(O)COc1nc(NC2CCCC2)c2cnn([C@@H]3O[C@H](COC(CO)(CO)P(=O)(O)O)[C@@H](O)[C@H]3O)c2n1` (racemic) [Example 175, rac-(2-(((2R,3S,4R,5R)-5-(4-(cyclopentylamino)-6-(2-hydroxy-2-methylpropoxy)-1H-pyrazolo[3,4-d]pyrimidin-1-yl)-3,4-dihydroxytetrahydrofuran-2-yl)methoxy)-1,3-dihydroxypropan-2-yl)phosphonic acid], for which the IC50 is ≤ 100 nM.
Take `COCC(OC[C@H]1O[C@@H](n2cnc3c(NC4CCCC4)nc(Cl)nc32)[C@H](O)[C@@H]1O)P(=O)(O)O` (stereo partly drawn) [Example 160, (1-(((2R,3S,4R,5R)-5-(2-chloro-6-(cyclopentylamino)-9H-purin-9-yl)-3,4-dihydroxytetrahydrofuran-2-yl)methoxy)-2-methoxyethyl)phosphonic acid]: the IC50 was ≤ 100 nM.
The same measure for `C[C@@](CO)(OC[C@H]1O[C@@H](n2ncc3c(NC4CCC4)nc(Cl)nc32)[C@H](O)[C@@H]1O)P(=O)(O)O` [Example 101, ((R)-2-(((2R,3S,4R,5R)-5-(6-chloro-4-(cyclobutylamino)-1H-pyrazolo[3,4-d]pyrimidin-1-yl)-3,4-dihydroxytetrahydrofuran-2-yl)methoxy)-1-hydroxypropan-2-yl)phosphonic acid]: ≤ 100 nM.
In the case of `O=P(O)(O)C(CO)(CO)OC[C@H]1O[C@@H](n2ncc3c(NC4CCCC4)nc(Cl)nc32)[C@H](O)[C@@H]1O` [Example 86, [1-[[(2R,3S,4R,5R)-5-[6-Chloro-4-(cyclopentylamino)pyrazolo[3,4-d]pyrimidin-1-yl]-3,4-dihydroxy-tetrahydrofuran-2-yl]methoxy]-2-hydroxy-1-(hydroxymethyl)ethyl]phosphonic acid], the IC50 is ≤ 100 nM.
Take `CC(CO)(P(=O)(O)O)S(=O)(=O)C[C@H]1O[C@@H](n2ncc3c(NC4CCCC4)nc(Cl)nc32)[C@H](O)[C@@H]1O` (stereo partly drawn) [Example 8, (2-((((2S,3S,4R,5R)-5-(6-Chloro-4-(cyclopentylamino)-1H-pyrazolo[3,4-d]pyrimidin-1-yl)-3,4-dihydroxytetrahydrofuran-2-yl)methyl)sulfonyl)-1-hydroxypropan-2-yl)phosphonic acid]: the IC50 is ≤ 100 nM.
With `CC(C)OC[C@](CO)(OC[C@H]1O[C@@H](n2ncc3c(NC4CCCC4)nc(Cl)nc32)[C@H](O)[C@@H]1O)P(=O)(O)O` [Example 114, ((R)-2-(((2R,3S,4R,5R)-5-(6-chloro-4-(cyclopentylamino)-1H-pyrazolo[3,4-d]pyrimidin-1-yl)-3,4-dihydroxytetrahydrofuran-2-yl)methoxy)-1-hydroxy-3-isopropoxypropan-2-yl)phosphonic acid], the IC50 is ≤ 100 nM.
On to `O=P(O)(O)[C@@](CO)(COCc1ccccc1)OC[C@H]1O[C@@H](n2ncc3c(NC4CCCC4)nc(Cl)nc32)[C@H](O)[C@@H]1O` (racemic) [Example 180, rac-((R)-1-(benzyloxy)-2-(((2S,3R,4S,5S)-5-(6-chloro-4-(cyclopentyalmino)-1H-pyrazolo[3,4-d]pyrimidin-1-yl)-3,4-dihydroxytetrahydrofuran-2-yl)methoxy)-3-hydroxypropan-2-yl)phosphonic acid], for which the IC50 was ≤ 100 nM.
For `C[C@@](CS(C)(=O)=O)(OC[C@H]1O[C@@H](n2ncc3c(NC4CCCC4)nc(Cl)nc32)[C@H](O)[C@@H]1O)P(=O)(O)O` [Example 74, ((R)-2-(((2R,3S,4R,5R)-5-(6-chloro-4-(cyclopentylamino)-1H-pyrazolo[3,4-d]pyrimidin-1-yl)-3,4-dihydroxytetrahydrofuran-2-yl)methoxy)-1-(methylsulfonyl)propan-2-yl)phosphonic acid], the IC50 is ≤ 100 nM.
As for `C[C@@](COCCO)(OC[C@H]1O[C@@H](n2ncc3c(NC4CCCC4)nc(Cl)nc32)[C@H](O)[C@@H]1O)P(=O)(O)O` [Example 124, ((R)-2-(((2R,3S,4R,5R)-5-(6-chloro-4-(cyclopentylamino)-1H-pyrazolo[3,4-d]pyrimidin-1-yl)-3,4-dihydroxytetrahydrofuran-2-yl)methoxy)-1-(2-hydroxyethoxy)propan-2-yl)phosphonic acid], the IC50 was ≤ 100 nM.
